“Also recorded” adds a separate entry of the source.
Assays:
[1] = cited from earlier work; for FTPC: free therapeutic plasma concentration, Refs of Supplementary Table 1; for FPTC (free plasma therapeutic concentration): ref Supplementary Table 1
heart = system: heart; design: method as in Refs column of Supplementary Table 1; details: Refs of Supplementary Table 1; cited from earlier work
cardiac contractility = details: cited from earlier work; for EC50: read-out: Expected effect on contractility in isolated cardiomyocytes/heart muscles, EC50
R-PAT hiPSC-CM EHTs = assay: Engineered heart tissue (EHT) contractility, R-PAT hiPSC-CMs; type: cell-based, human
Source text: (§1) To generate EHTs, in-house hiPSC lines, R-PAT, and ERC18, were differentiated using 2D-monolayer- (R-PAT) or 3D-embryoid body- (ERC18) protocol and fabricated as recently described ([Breckwoldt et al., 2017]; [Mosqueira et al., 2018]). In brief, casting molds were generated in 24-well plates with 2% agarose (Invitrogen, 15510-019) and Polytetrafluorethylene (PTFE) spacers (EHT Technologies, C0002). PDMS racks (EHT Technologies, C0001) were placed in the 24-well plates so that pairs of PDMS posts reached into each agarose casting mold. A reconstitution mix was prepared consisting of: 1 × 10^6 hiPSC-CM; 81.9 µl cardiomyocyte medium; 10 µl Matrigel basement membrane matrix (BD 354234); 5.5 µl 2 × DMEM; 0.1 µl Y-27632 (10 mM; Biorbyt orb60104); 2.5 µl bovine fibrinogen (5 mg/ml; Sigma F4753). Reconstitution mix (97 µl) was mixed with prealiquoted 3 µl thrombin (100 U/ml; Biopur BP11-10-1104) and pipetted into the agarose casting mold. GCAMP6f-lentiviral particles (multiplicity of infection: 0.3, functional titer) were included in the EHT reconstitution mix for Ca^2+ transient analysis. EHTs started to beat coherently after 10–14 days and were analyzed for contraction and Ca^2+ transient at ≥ 20 days.
(§2) EHTs were transferred from culture medium into preequilibrated (37°C, 40% O2, 7% CO2), modified Tyrode’s solution (in mM, 120 NaCl; 22.6 NaHCO3; 5.4 KCl; 5 glucose; 1 MgCl2; 0.4 NaH2PO4; 0.6–1 CaCl2; 0.05 Na2EDTA; 25 HEPES) for R-PAT and into DMEM (Gibco 21068028; in mM, 110 NaCl; 44 NaHCO3; 5 KCl; 25 glucose; 0.8 MgSO4; 0.9 NaH2PO4, 0.6–1 CaCl2; 25 HEPES, and vitamins and amino acids) for ERC18 EHTs 40 min before analysis to equilibrate to the testing medium. After equilibration, the cumulative concentration response curve was started with baseline recording in preequilibrated medium with Ca^2+ concentration of 0.6–1 mM.
(§3) Contractility analysis was via automated video-optical contractility analysis was performed in 24-well cell culture plates (Nunc, 122475) ([Breckwoldt et al., 2017]). Video files of EHT contractions were analyzed by automated EHT figure recognition software (EHT Technologies, A0001). Top and bottom ends of EHT contour were identified and followed during the course of recording. Force was calculated based on shortening during contraction, elastic propensity, and geometry of PDMS posts.
(§4) Data were normalized to a pool of time-matched controls (contractility analysis, ERC18: n = 22 EHTs/7.0 experiments; R-PAT: 16 EHTs/5.0 experiments; combined contractility- and Ca^2+ transient-analysis: 21 EHTs/8.0 experiments) used for all contractility/combined contractility- and Ca^2+ transient-measurements. Data are plotted as relative change to the mean baseline, normalized to pool time control. Statistical significance was evaluated by GraphPad Software, 1-way ANOVA with Dunnett’s multiple comparisons test versus baseline.

R-PAT hiPSC-CMs [2] = assay: CO:R-PAT contractility after 24 h exposure
Source text: We asked whether longer term exposure would affect contractility (Supplementary Figure 7).
Prolonged exposure detects NIs in 2D and 3D cultures of hiPSC-CMs. […] CA is shown normalized to time controls.

ERC18 hiPSC-CM EHTs [3] = details: EHT:ERC
Experimental: For long-term contractility analysis of sunitinib, hiPSC-CM EHTs were equilibrated to regular cell culture medium without serum (DMEM, Biochrom F0415; penicillin/streptomycin 1% [volume/volume], Gibco 15140; aprotinin 5 µM, Sigma-Aldrich A1153; insulin 1.7 µM, Sigma-Aldrich I9278; glutamine 2000 µM, Gibco 25030-081; triiodothyronine 0.77 nM, European Commission-Joint Research Center IRMM-469; hydrocortisone 137 µM: Sigma-Aldrich H0888). Medium change, drug addition and video-optical contractility analysis was performed daily and contraction data was normalized to time control.
The EHT:ERC platform-cell combination was exposed to 100 µM doxorubicin (C) or 1 µM sunitinib (D) for up to 17.5 hr (C) or up to 8 days (D). CA is shown normalized to time controls.

hiPSC-CMs = assay: CellOPTIQ voltage (FluoVolt) analysis, hiPSC-CMs; type: cell-based, human
Experimental: hiPSC-CMs in 96-well plate were transiently loaded in 50 µl/well of SFM containing FluoVolt (1:200 part B, 1:2000 part A; Life Tech, F10488) for 20 min at 37°C and 5% CO2. After incubation, the medium was replaced with 200 μl/well of SFM. Plates were then incubated at 37°C and 5% CO2 for 15 min before recording, which were made using a ×40 (NAO.6) objective at 10 KHz. […] Electrophysiology data were analyzed using CellOPTIQ proprietary software of Clyde Biosciences and were normalized to a maximum amplitude of 1 and minimum of 0 to standardize height for comparison of traces created in OriginPro (OriginLab version 7.5). Contractility data were analyzed based on pixel displacement using an ImageJ plug-in. […]
Action potential duration (APD30, APD90) and triangulation (APD90–APD30) were calculated from voltage waveforms to determine whether electrophysiology was altered, including the appearance of arrhythmias. For Ca^2+ handling, amplitude, time to peak, and decay time were assessed, whereas similar parameters (contraction amplitude [CA], contraction time [CT], and relaxation time [RT]) were derived for contraction (Supplementary Figure 2). […]

R-PAT hiPSC-CMs [4] = assay: CellOPTIQ (CO) contractility, R-PAT hiPSC-CM 2D monolayers; type: cell-based, human; details: mean maximum measurable percentage change relative to baseline, at concentration of column Conc μM or cell superscript
Experimental: Manufacturer instructions were followed for the commercial hiPSC lines. […] The same plates were used for R-PAT hiPSC-CMs, which were seeded at 40 000 cells/well and maintained until days 20 and 21 of differentiation before use.
hiPSC-CMs in 96-well plate were transiently loaded in 50 µl/well of SFM containing FluoVolt (1:200 part B, 1:2000 part A; Life Tech, F10488) for 20 min at 37°C and 5% CO2. After incubation, the medium was replaced with 200 μl/well of SFM. Plates were then incubated at 37°C and 5% CO2 for 15 min before recording, which were made using a ×40 (NAO.6) objective at 10 KHz. […] Baselines and drug addition were as described for the TTM system. Electrophysiology data were analyzed using CellOPTIQ proprietary software of Clyde Biosciences and were normalized to a maximum amplitude of 1 and minimum of 0 to standardize height for comparison of traces created in OriginPro (OriginLab version 7.5). Contractility data were analyzed based on pixel displacement using an ImageJ plug-in. This plug-in uses a sum of absolute differences algorithm.

ERC18 hiPSC-CM EHTs [5] = assay: Engineered heart tissue (EHT) contractility, ERC18 hiPSC-CMs; type: cell-based, human; details: for changes in CA on the EHT platform: one range given for three NE drugs incorrectly predicted as PIs, EHT: ERC18 per Table 1
Source text: as §1, §2, §3, §4

[6] = isolated cardiomyocytes/heart muscles, Refs of Supplementary Table 1
[7] = EHT: ERC18, mean maximum measurable percentage change relative to baseline, at concentration of column Conc μM or cell superscript
[8] = EHT: R-PAT, mean maximum measurable percentage change relative to baseline, at concentration of column Conc μM or cell superscript

Structure (SMILES)	FTPC [1]	Expected cardiac effects in vivo (heart)	Expected effect on contractility in isolated cardiomyocytes/heart muscles (cardiac contractility; [6])	EC50 (cardiac contractility; [6])	effect of exposure to the highest concentration for 24 h (R-PAT hiPSC-CMs [2])	FPTC (free plasma therapeutic concentration) [1]	electrophysiology after 30 min exposure (hiPSC-CMs)	changes in CA on the EHT platform (ERC18 hiPSC-CM EHTs [5])	other results
COC(=O)N1CCN(Cc2cccc(NC(=O)Nc3ccc(C)nc3)c2F)CC1 [Omecamtiv mecarbil]	0.05 to 0.42 µM	PI, prolonged syst. ejection time, small decrease in heart rate	PI, NCl, NL, diastolic shortening (dog myocytes)	1 µM	–	–	–	–	increased CT (R-PAT hiPSC-CM EHTs; hiPSC-CMs configured as 3D EHTs, blinded phase, without convincing evidence for increased CA): approximately +40%
COc1cccc2c1C(=O)c1c(O)c3c(c(O)c1C2=O)C[C@@](O)(C(=O)CO)C[C@@H]3O[C@H]1C[C@H](N)[C@H](O)[C@H](C)O1 [Doxorubicin]	1 to 2 µM	NI, time course of cardiotox dose-dependent	PI+NCl and reduced post-rest potentiation at 30 µM (GP), but strong NI at 1000 µM (GP, rat); rate-dependent	–	loss of contraction and cell death	1 to 2 µM	altered electrophysiology; also recorded: changes in electrophysiology	–	inotropy trend with 24 h treatment (R-PAT hiPSC-CMs [2]; 1 to 30 µM, increased CA, decreased CT): trend of positive inotropy; time after which EHT contraction ceased (ERC18 hiPSC-CM EHTs [3]; 100 µM doxorubicin): 17.5 h; reported inotropic effects (cardiac contractility; ref Kim et al., 1980, Vanboxtel et al., 1978, Wang and Korth, 1995): transient positive inotropy is followed by robust negative inotropy at higher concentrations
CCN(CC)CCNC(=O)c1c(C)[nH]c(/C=C2\C(=O)Nc3ccc(F)cc32)c1C [Sunitinib]	0.003 µM	NI, NC at high doses, chronic cardiotox	–	–	loss of contraction and cell death	0.003 µM	altered electrophysiology	–	CA over a 7-day period (ERC18 hiPSC-CM EHTs [3]; 1 µM sunitinib, normalized to time controls): decline in CA; IC50 (cardiac contractility; negative inotropy, isolated cardiomyocytes/heart muscles, Refs of Supplementary Table 1, read-out: Expected effect on contractility in isolated cardiomyocytes/heart muscles, IC50): 10 µM
C[C@H](N[C@@H](CCc1ccccc1)C(=O)O)C(=O)N1CCC[C@H]1C(=O)O [Enalaprilat]	0.12 µM	None	None	–	–	0.12 µM	–	–	CA (contraction amplitude) (R-PAT hiPSC-CMs [4]): +54%; CT (contraction time) (R-PAT hiPSC-CMs [4]): +20 ^10 µM %; RT (relaxation time) (R-PAT hiPSC-CMs [4]): +34%; inotropic effect via bradykinin B1 receptor activation (cardiac contractility; ACE inhibitors, ref Ignjatovic et al., 2002): positive inotropic effect; CA (contraction amplitude) (ERC18 hiPSC-CM EHTs [5]; [7]): +2 ^10 µM %; CT (contraction time) (ERC18 hiPSC-CM EHTs [5]; [7]): −3%; RT (relaxation time) (ERC18 hiPSC-CM EHTs [5]; [7]): −4%; CA (contraction amplitude) (R-PAT hiPSC-CM EHTs; [8]): +33%; CT (contraction time) (R-PAT hiPSC-CM EHTs; [8]): +5 ^1 µM %; RT (relaxation time) (R-PAT hiPSC-CM EHTs; [8]): −14%; changes in CA on the EHT platform (R-PAT hiPSC-CM EHTs; one range given for three NE drugs incorrectly predicted as PIs, EHT: R-PAT per Table 1): 19%–33
CCCCNC(=O)NS(=O)(=O)c1ccc(C)cc1 [Tolbutamide]	–	None or PI (dogs, men)	None (canine CM) or small PI (rabbit atria, rat heart)	~30 µM	–	–	–	19%–33	–
CC[C@H](C)C(=O)O[C@H]1C[C@H](O)C=C2C=C[C@H](C)[C@H](CC[C@@H](O)C[C@@H](O)CC(=O)O)[C@H]21 [Pravastatin]	0.018 µM	None	None	–	–	0.018 µM	–	19%–33	–
